Data from US8669246B2, “Substituted amide compound” (Astellas Pharma Inc., priority 2009, dated 2014).

Tests used:
human LPA1 = molecular target: T1, human LPA1 (Homo sapiens, UniProt Q92633); experiment: Antagonistic action on human LPA1: inhibition of LPA-stimulated increase in intracellular calcium ion concentration in human LPA1-CHO cells; type: cell-based; details: LPA 100 nM, Fluo-4/FLIPR calcium signal
T1 construct: expressed in transfected cells
Protocol: Antagonistic Action of Compound of Formula (I) on Human LPA1
The antagonistic action on a human LPA 1 was evaluated with an index of an inhibitory action on the LPA-stimulated increase in intracellular calcium ion concentration, using human LPA 1-CHO cells [cells in which human LPA1 receptors are stably expressed in CHO (dhfr gene-deficient) cell lines].
Establishment of human LPA1-CHO cells was performed based on the basic genetic engineering techniques.
The established cells were maintained by passage in a nucleic acid-free α-MEM medium (Invitrogen) containing 10% FBS, 1% penicillin/streptomycin (Invitrogen), and 100 nM methotrexate, and before experiment, the medium was replaced with a medium that had been reduced to 1% of the […] concentration, then seeded in 96-well plates to 1.5×10e^5 cells/100 μL/well, and incubated overnight.
On the day of experiment, a 0.5 μM Fluo-4 solution [a solution prepared by adding 20 mM HEPES (Sigma), […] probenecid (Nacalai Tesque), 0.05% BSA, 0.5 μM Fluo-4 AM (Dojindo Laboratories), and 0.1% Pluronic […] (Molecular Probe Co.) to a Hanks Balanced Solt Solution (Invitrogen)] was added to the cells, and Fluo-4 was loaded on the cells by incubating for 2 hours at room temperature.
After loading Fluo-4, the Fluo-4 solution was replaced with a reaction solution [a solution obtained by adding 20 mM HEPES, […] probenecid, and 0.05% BSA to a Hanks Balanced Solt Solution], and then measurement was performed using a device for measuring an intracellular calcium concentration (FLIPR tetra, Molecular Devices Inc.).
A reaction solution in which the compound of the formula (I) (with a final concentration of 0.1 nM to 10 μM) had been dissolved was added to each of the wells, the signals were measured over time for 4 minutes, then a reaction solution in which LPA (final concentration 100 nM) had been dissolved was added thereto, and the signals were measured over time for 2 minutes. The difference between the maximum and minimum response during one minute from addition of LPA was calculated. The inhibitory activity was calculated, with a response when LPA only (not including the compound) was added was taken as 0% inhibition, and a response when a reaction solution not including both of the compound and LPA was added was taken as 100% inhibition. Then the 50% inhibitory concentration was calculated as an IC50 value (nM).
Human LPA1-CHO cells used in the present test were the cells with the same sequence as described in the pamphlet of International Publication WO 99/19513 were used. Further, Ex represents Example No. as denoted below.

[1] = test system: LPA-induced increase in urethral pressure; experiment: Inhibitory action on LPA-induced increase in urethral pressure in rats under anesthesia; type: in vivo, rat (male Wistar); details: Rattus norvegicus, 5 min; 0.1 mg/kg intravenous, LPA (1-oleoyl) 3 mg/kg iv after 5 minutes, anesthetized rats, vs solvent; read-out: Inhibitory rate
Protocol: Inhibitory Action of Compound of Formula (I) on LPA-Induced Increase in Urethral Pressure in Rats Under Anesthesia (with Intravenous Administration at 0.1 mg/kg) Male Wistar rats (Charles River, 9- to 12-week old) were anesthetized with urethane (1.2 g/kg ip), and held in the supine position on an operating table kept at 37° C. The lower abdominal portion was midline-incised and the bladder was thus exposed. A small portion of the bladder apex was incised, a microchip pressure transducer (Millar) was inserted antegrade, and then placed in the urethra, and the urethral pressure was recorded continuously. In addition, a cannula for administration of a drug was placed into the femoral vein. After about 1 hour of stabilization, the compound of formula (I) (0.1 mg/kg) was administered intravenously. After 5 minutes, LPA (1-oleoyl) was administered intravenously at 3 mg/kg, and the changes in the urethral pressure were recorded. The inhibitory rates (%) of the compound of the formula (I) on the LPA-stimulated increase in the urethral pressure compared with those after administration of the solvent of the compound of the formula (I) were recorded.

T1 sequence (Q92633 whole entry): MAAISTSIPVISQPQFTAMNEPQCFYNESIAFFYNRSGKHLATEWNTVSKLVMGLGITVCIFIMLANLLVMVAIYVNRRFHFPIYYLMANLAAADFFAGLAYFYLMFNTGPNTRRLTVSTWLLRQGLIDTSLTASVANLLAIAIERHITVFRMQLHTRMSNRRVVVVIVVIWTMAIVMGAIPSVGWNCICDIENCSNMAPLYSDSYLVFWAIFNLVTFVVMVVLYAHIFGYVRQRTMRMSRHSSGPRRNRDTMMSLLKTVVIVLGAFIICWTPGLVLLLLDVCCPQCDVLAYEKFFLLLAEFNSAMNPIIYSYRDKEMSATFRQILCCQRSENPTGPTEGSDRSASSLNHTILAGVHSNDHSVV

`COc1cc(C(=O)N(CCCc2ccccc2)Cc2nc(C(=O)NS(C)(=O)=O)c(C)s2)cc(OC)c1C` [Example 109] showed an IC50 (human LPA1) of 22 nM and a melting point of 128 to 131 °C.
For `COc1ccc(C2(C(=O)N(CCCc3ccc(C)o3)Cc3nc(C(=O)NS(=O)(=O)N(C)C)c(C)s3)CC2)nc1` [Example 200], the IC50 (human LPA1) was 33 nM and the inhibition in vivo at 0.1 mg/kg [1] was 31%.
In the case of `COc1ccc([C@@H](O)C(=O)N(CCCc2ccccc2)Cc2nc(C(=O)NS(=O)(=O)C(C)C)c(C)s2)cc1` [Example 285], the IC50 (human LPA1) is reported as 32 nM and the melting point is reported as 137 to 138 °C.
`CCS(=O)(=O)NC(=O)c1nc(CN(CCCc2cccs2)C(=O)[C@H](O)c2ccc(OC)cc2)sc1C` [Example 272] gave an IC50 (human LPA1) of 44 nM and a melting point of 124 to 126 °C.
For `COc1ccc(C2(C(=O)N(CCCc3cccc(F)c3)Cc3nc(C(=O)NS(=O)(=O)N(C)C)c(C)s3)CC2)nc1` [Example 208], the IC50 (human LPA1) was 40 nM, the inhibition in vivo at 0.1 mg/kg [1] was 14% and the melting point was 114 to 115 °C.
For `COc1ccc(C2(C(=O)N(CCCc3ccco3)Cc3nc(C(=O)NS(=O)(=O)N(C)C)c(C)s3)CC2)nc1` [Example 221], the melting point was 112 to 113 °C.
`CNS(=O)(=O)NC(=O)c1csc(CN(CCCc2ccsc2)C(=O)c2cc(OC)c(C)c(OC)c2)n1` [Example 137] showed an IC50 (human LPA1) of 9.9 nM and an inhibition in vivo at 0.1 mg/kg [1] of 17%.
`Cc1cc(C(=O)N(CCCc2ccccc2)Cc2nc(C(=O)NS(N)(=O)=O)c(Cl)s2)cc(C)c1O` [Example 147] showed an IC50 (human LPA1) of 16 nM.
With `COc1cc(C(=O)N(CCCc2ccccc2)Cc2nc(C(=O)NS(N)(=O)=O)cs2)cc(OC)c1C1CC1` [Example 131] the IC50 (human LPA1) was 7.2 nM, the inhibition in vivo at 0.1 mg/kg [1] was 38% and the melting point was 147 to 149 °C.
For `COc1ccc(C2(C(=O)N(CCCc3ccco3)Cc3nc(C(=O)NS(=O)(=O)N(C)C)c(C)s3)CC2)cc1` [Example 233], the IC50 (human LPA1) was 22 nM and the inhibition in vivo at 0.1 mg/kg [1] was 38%.
In the case of `COc1ccc([C@@H](O)C(=O)N(CCCc2cccs2)Cc2nc(C(=O)NS(=O)(=O)N(C)C)c(C)s2)cc1` [Example 256], the melting point is reported as 118 to 120 °C.
Work on `CCS(=O)(=O)NC(=O)c1nc(CN(CCCc2ccccc2)C(=O)[C@H](O)c2ccc(OC)cc2F)sc1C` [Example 278] yielded a melting point of 111 to 112 °C.
`COc1cc(C(=O)N(CCCc2ccccc2)Cc2nc(C(=O)NS(N)(=O)=O)cs2)cc(OC)c1Br` [Example 132] showed an inhibition in vivo at 0.1 mg/kg [1] of 42%.
Work on `COc1cc(C(=O)N(CCCc2ccc(Cl)s2)Cc2nc(C(=O)NS(N)(=O)=O)cs2)cc(OC)c1C` [Example 110] yielded an IC50 (human LPA1) of 11 nM and a melting point of 154 to 156 °C.
In the case of `COc1ccc(C2(C(=O)N(CCCc3ccccc3)Cc3nc(C(=O)NS(=O)(=O)N(C)C)c(C)s3)CC2)nc1` [Example 31], the melting point is reported as 125 to 126 °C.
`COc1cc(C(=O)N(CCCc2ccccc2)Cc2nc(C(=O)NS(=O)(=O)Nc3ccccn3)cs2)cc(OC)c1C` [Example 79] showed an IC50 (human LPA1) of 16 nM.
`COc1cc(C(=O)N(CCCc2ccccc2)Cc2csc(C(=O)NS(N)(=O)=O)n2)cc(OC)c1C` [Example 62] showed an IC50 (human LPA1) of 11 nM and a melting point of 173 to 175 °C.
In the case of `COc1ccc([C@@H](O)C(=O)N(CCCc2ccccc2)Cc2nc(C(=O)NS(C)(=O)=O)c(C)s2)c(F)c1` [Example 277], the IC50 (human LPA1) is reported as 12 nM, the inhibition in vivo at 0.1 mg/kg [1] is reported as 42% and the melting point is reported as 121 to 123 °C.
`COc1cc(C(=O)N(CCCc2ccccc2F)Cc2nc(C(=O)NS(=O)(=O)N(C)C)cs2)cc(OC)c1C` [Example 119] showed a melting point of 128 to 131 °C.
For `COc1cc(C(=O)N(CCCc2ccccc2)Cc2nc(C(=O)NS(=O)(=O)c3cccs3)cs2)cc(OC)c1C` [Example 5, 2-{[(3,5-dimethoxy-4-methylbenzoyl)(3-phenylpropyl)amino]methyl}-N-(2-thienylsulfonyl)-1,3-thiazole-4-carboxamide], the IC50 (human LPA1) was 7.8 nM.
`CNS(=O)(=O)NC(=O)c1nc(CN(CCCc2ccccc2)C(=O)c2cc(OC)c(C)c(OC)c2)cs1` [Example 63] gave an inhibition in vivo at 0.1 mg/kg [1] of 28%.
Work on `COc1cc(C(=O)N(CCCc2ccccc2)Cc2nc(C(=O)NS(=O)(=O)CC(C)O)cs2)cc(OC)c1C` (stereo not drawn) [Example 175] yielded an IC50 (human LPA1) of 23 nM.
`COc1cc(C(=O)N(CCCc2cc(F)ccc2F)Cc2nc(C(=O)NS(N)(=O)=O)cs2)cc(OC)c1C` [Example 115] showed an IC50 (human LPA1) of 16 nM.
Compound `COc1cc(C(=O)N(CCCc2ccccc2)Cc2nc(C(=O)NS(N)(=O)=O)co2)cc(OC)c1C` [Example 121] has an IC50 (human LPA1) of 19 nM and a melting point of 136 to 141 °C.
With `COc1ccc(C2(C(=O)N(CCCc3cccc(F)c3)Cc3nc(C(=O)[N-]S(=O)(=O)N(C)C)c(C)s3)CC2)nc1.[K+]` the melting point was 219 to 221 °C.
Compound `C=Cc1c(OC)cc(C(=O)N(CCCc2ccccc2)Cc2nc(C(=O)NS(N)(=O)=O)cs2)cc1OC` [Example 130] has an inhibition in vivo at 0.1 mg/kg [1] of 39%.
In the case of `CNS(=O)(=O)NC(=O)c1nc(CN(CCCc2ccccc2)C(=O)c2cc(OC)c(Cl)c(OC)c2)sc1Cl` [Example 162], the inhibition in vivo at 0.1 mg/kg [1] is reported as 21%.
With `COc1cc(C(=O)N(CCCc2ccccc2)Cc2nc(C(=O)NS(C)(=O)=O)cs2)cc(OC)c1C` [Example 108] the IC50 (human LPA1) was 11 nM and the melting point was 133 to 134 °C.
In the case of `COc1ccc([C@@H](O)C(=O)N(CCCc2ccccc2)Cc2nc(C(=O)NS(=O)(=O)N(C)C)c(C)s2)cc1` [Example 290], the IC50 (human LPA1) is reported as 33 nM and the melting point is reported as 110 to 112 °C.
In the case of `COc1cc(C(=O)N(CCCc2ccccc2)Cc2nc(C(=O)NS(=O)(=O)CCO)cs2)cc(OC)c1C` [Example 167], the IC50 (human LPA1) is reported as 12 nM and the inhibition in vivo at 0.1 mg/kg [1] is reported as 35%.
`COc1ccc(C(O)C(=O)N(CCCc2ccccc2)Cc2nc(C(=O)NS(=O)(=O)N(C)C)c(C)s2)cn1` (stereo not drawn) [Example 28] gave a melting point of 178 to 179 °C.
Compound `CCNS(=O)(=O)[N-]C(=O)c1csc(CN(CCCc2ccccc2)C(=O)c2cc(OC)c(C)c(OC)c2)n1.[K+]` has a melting point of 203 to 205 °C.
In the case of `CCS(=O)(=O)NC(=O)c1nc(CN(CCCc2ccccc2)C(=O)[C@H](O)c2ccc(OC)cc2)sc1C` [Example 266], the IC50 (human LPA1) is reported as 65 nM, the inhibition in vivo at 0.1 mg/kg [1] is reported as 15% and the melting point is reported as 123 to 125 °C.
`COc1cc(C(=O)N(CCCc2ccccc2)Cc2ccc(C(=O)NS(N)(=O)=O)o2)cc(OC)c1C` [Example 123] showed an IC50 (human LPA1) of 7.5 nM and an inhibition in vivo at 0.1 mg/kg [1] of 39%.
In the case of `COc1cc(C(=O)N(CCCc2ccccc2F)Cc2nc(C(=O)NS(N)(=O)=O)cs2)cc(OC)c1C` [Example 113], the IC50 (human LPA1) is reported as 12 nM and the melting point is reported as 145 to 146 °C.
With `CNS(=O)(=O)NC(=O)c1nc(CN(CCCc2cccs2)C(=O)[C@H](O)c2ccc(OC)cc2)sc1C` [Example 283] the IC50 (human LPA1) was 29 nM and the melting point was 106 to 109 °C.
For `COc1cc(C(=O)N(CCCc2ccccc2)Cc2nc(C(=O)NS(=O)(=O)NC(C)=O)cs2)cc(OC)c1C` [Example 168, N-(acetylsulfamoyl)-2-{[(3,5-dimethoxy-4-methylbenzoyl)(3-phenylpropyl)amino]methyl}-1,3-thiazole-4-carboxamide], the IC50 (human LPA1) was 17 nM.
`COCc1c(OC)cc(C(=O)N(CCCc2ccccc2)Cc2nc(C(=O)NS(=O)(=O)NOC)c(C)s2)cc1OC` [Example 161] showed a melting point of 151 to 153 °C.
Work on `COc1cc(C(=O)N(CCCc2ccccc2)Cc2nc(C(=O)NS(N)(=O)=O)cs2)cc(OC)c1C` [Example 69] yielded an IC50 (human LPA1) of 8.8 nM, an inhibition in vivo at 0.1 mg/kg [1] of 33% and a melting point of 147 to 150 °C.
For `COc1cc(C(=O)N(CCCc2ccc(C)o2)Cc2nc(C(=O)NS(N)(=O)=O)cs2)cc(OC)c1C` [Example 111], the IC50 (human LPA1) was 6.6 nM and the inhibition in vivo at 0.1 mg/kg [1] was 56%.
